The values that follow come from PubChem BioAssay AID1902 (Broad Institute, 2009).

In this experiment the target is S. pyogenes SKKanGAS, kanamycin survival, BacTiterGlo, 6 h. Briefly: SKKanGAS survival reduction under kanamycin, dose response, streptokinase promoter inhibitor project, SKKanGAS strain, luminescence, dose confirmation (AID 1902).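 Note: lower survival reflects blocked streptokinase promoter driving kanamycin resistance gene.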

Active and inactive are the calls of the source.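 Rule for the calls: active = EC50 no more than a set limit of log units above the highest dose; inactive = the rest.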 Bounds are passed on as bounds.

Take `COc1ccc(CCCC(=O)N/N=C/c2cccc(OC)c2O)cc1C`: the EC50 is 1.66 µM.
As for `Cc1cccc(C)c1OCC(O)Cn1c2ccccc2c2ccccc21` (stereo not given), the figure is 3.83 µM; as for `COc1ccc(Cc2n[nH]c(=S)n2NC(=O)Nc2ccc(Cl)c(Cl)c2)cc1`, 4.08 µM; as for `O=C(NC(NC(=S)Nc1c(Cl)cccc1Cl)C(Cl)(Cl)Cl)OCc1ccccc1` (stereo not given), 2.5 µM.
As for `O=c1[nH]c(CSc2ncnc3sccc23)nc2ccccc12`, the figure is 2.25 µM; as for `O=[N+]([O-])c1c(NCCO)cc(Sc2nc3ccccc3s2)c2nonc12`, 2.95 µM.
In the case of `Cc1ccnc(NC(=S)N2CCN(c3cccc(C(F)(F)F)c3)CC2)c1` it was 1.65 µM.
On to `COc1cccc(C(=O)Nc2nnc(-c3cccs3)o2)c1`, for which the EC50 was 3.34 µM.
Regarding `Cc1ccc(Cl)cc1N1CCN(C(=O)c2cccc3c(=O)c(C)c(-c4ccccc4)oc23)CC1`, the EC50 is 4 µM.
As for `Cn1ncc2c(Nc3ccc(Br)cc3)nc(Nc3ccc(Br)cc3)nc21`, the figure is 1.08 µM.
As for `CC1CCN(c2ccccc2NC(=O)c2ccc(Br)o2)CC1`, the figure is 5.29 µM; as for `CCCOc1ccc(-c2nc(OC)c3ccccc3n2)cc1`, > 15 µM (inactive); as for `COc1ccc(-c2nn(-c3ccccc3)cc2/C=C2/SC(=S)N(CCC(=O)O)C2=O)cc1`, 1.83 µM.
`CCN(CC(=O)NCC1CCCO1)S(=O)(=O)c1ccc(Cl)cc1` (stereo not given): the EC50 was > 15 µM (inactive).
In the case of `Cc1cccc(/C=C/C(=O)c2ccc([N+](=O)[O-])o2)c1` it was 4.81 µM; in that of `CN1/C(=C\C(=O)Nc2ccc(Cl)cc2)C(C)(C)c2ccccc21`, 8.64 µM.
As for `O=C(Nc1nnc(-c2ccc3c(c2)CCCC3)o1)c1c(F)cccc1F`, the figure is 0.612 µM.
As for `O=C(c1cc(-c2ccc(Br)cc2)nc2ccccc12)N1CCN(c2ccccc2O)CC1`, the figure is 6.44 µM; as for `O=[N+]([O-])c1cccnc1N1CCC(c2cc(-c3ccc(Cl)cc3)n[nH]2)CC1`, 2.96 µM; as for `O=C(CSc1nnc(NC(=O)c2ccccc2[N+](=O)[O-])s1)NC1CCCC1`, > 15 µM (inactive).
`COc1cc([N+](=O)[O-])cc(/C=N/NC(=O)c2cccnc2)c1O`: the EC50 was 2.64 µM.
In the case of `O=C1C=C(N2CCCCC2)c2ccccc2C1=O` it was 3.67 µM.
As for `CCCCN(CC)S(=O)(=O)c1ccc(C(=O)Nc2nnc(-c3ccccc3Cl)o2)cc1`, the figure is 0.226 µM; as for `Cc1ccc(O)c(C2=NNC(c3ccc(Cl)cc3)C2)c1` (stereo not given), 7.44 µM; as for `O=C(CCCN1C(=O)/C(=C\c2cccs2)SC1=S)Nc1cc([N+](=O)[O-])ccc1O`, 5.04 µM.
As to `Cc1csc(NC(=O)c2c(O)c3c(n(CC(C)C)c2=O)CCCC3)n1`, the EC50 was 10.9 µM.
In the case of `CCOC(=O)c1ccc(Oc2cn[nH]c2-c2ccc(OCC(=O)NN)cc2O)cc1` it was 0.357 µM; in that of `N#CC(C#N)=NNc1ccc([N+](=O)[O-])cc1`, 3.72 µM.
In the case of `CCOc1cccc(/C=N/Nc2ccc(S(=O)(=O)N(CC)CC)cn2)c1O` it was 2.94 µM; in that of `COc1ccc(CNCC(O)(c2ccc(Cl)cc2)c2ccc(Cl)cc2)cc1`, 3.51 µM.
In the case of `Cc1ccc(C[n+]2c(-c3ccc(C)cc3)cc(-c3ccc(C)cc3)cc2-c2ccc(C)cc2)cc1` it was 4.06 µM; in that of `CN(C)c1ccc(C2C=C(c3ccc(Cl)cc3OC(F)F)Nc3ncnn32)cc1` (stereo not given), 10.8 µM; in that of `COc1ccc(OC)c2[nH]c(C(=O)N/N=C/c3ccccc3O)cc12`, 1.64 µM.
Turning to `CCC(=O)NC(c1ccc(OC)c(OC)c1)c1cc(Cl)c2cccnc2c1O` (stereo not given), the EC50 was 5 µM.
As for `CCOC(=O)c1sc2nc(Cc3ccc(Cl)cc3)[nH]c(=S)c2c1C`, the figure is 3.21 µM.
In the case of `CCCCC(=O)O[C@H]1CC[C@H]2[C@@H]3CCc4cc(O)ccc4[C@H]3CC[C@]12C` it was 3.83 µM; in that of `Cn1c(O)c(N=Nc2nc(-c3ccccc3)cs2)c2ccccc21`, 1.2 µM.
As for `CC(=O)c1sc(N/N=C\c2c(O)ccc3ccccc23)nc1C`, the figure is 4.08 µM; as for `CC(C)(C)N/N=C1\CC(c2ccccc2)Oc2ccccc21` (stereo not given), 3.03 µM; as for `CC(C)(C)C(=O)NC(=S)NNC(=O)c1ccc(Cl)cc1Cl`, 0.402 µM.
`Cc1cccc(C)c1OCC(=O)Nc1ccccc1N1CCCCC1`: the EC50 is 2.78 µM.
As for `COC(=O)c1c(NC(NC(=O)C(C)(C)C)C(Cl)(Cl)Cl)sc2c1CCC2` (stereo not given), the figure is 3.28 µM; as for `CC1CC(NC(=O)c2c(O)nc3sccn3c2=O)CC(C)(C)C1` (stereo not given), 7.03 µM; as for `CC(=O)OCCCNc1cc(Sc2nc3ccccc3s2)c2nonc2c1[N+](=O)[O-]`, 2.43 µM.
As for `N=C1SCC(=O)N1c1ncc(Cc2ccc(F)cc2)s1`, the figure is 1 µM; as for `CCCCC(CC)C(=O)Oc1ccc(O)c(C(C)(C)C)c1` (stereo not given), 2.89 µM; as for `COc1ccc(/C=C/c2ccc3cccc(O)c3n2)c(OC)c1OC`, 3.27 µM.
Regarding `Cc1ccccc1-c1cc(C(=O)Nc2sc(C(=O)OC(C)C)c(C)c2C#N)c2ccccc2n1`, the EC50 was 5.49 µM.
In the case of `CCCCc1nc(NCc2ccccc2)c(C#N)c2c1CCCC2` it was 8.22 µM; in that of `CCOc1cccc(N(C(=O)c2ccco2)C(C(=O)NC2CCCC2)c2cccnc2)c1` (stereo not given), > 15 µM (inactive); in that of `Cc1ccc(/C=C2/Sc3ccc(C(=O)N4CCC5(CC4)OCCO5)cc3NC2=O)cc1`, 5.88 µM.
In the case of `CC1Oc2cc3oc4c(O)c(O)ccc4c(=O)c3c(O)c2C1(C)C` (stereo not given) it was 5.89 µM; in that of `Cc1ccc(N(C)S(=O)(=O)c2cccc(C(=O)Nc3nc4ccccc4[nH]3)c2)cc1`, 1 µM; in that of `Cc1cccc(NC(=O)c2nc[nH]c2C(=O)N[C@@H](CC(C)C)C(=O)OCc2ccccc2)c1`, 1.68 µM.
Consider `CCCc1ccc(-c2cc(N)n[nH]2)cc1`, for which the EC50 was 4.89 µM.
In the case of `Cc1ccc(-c2cc(-c3cccc(F)c3)n[nH]2)c(O)c1` it was 4.32 µM; in that of `COc1ccccc1C(=O)NNC(=O)C(=O)Nc1cccc(Cl)c1C`, 3.44 µM.
In the case of `CC/C(=C\C=C\[C@@H]1C=C[C@@H]2CCC[C@H]2[C@@H]1C(=O)c1ccc[nH]1)[C@@H]1O[C@@H]([C@@H](C)C(=O)O)CC[C@@H]1C` it was 0.127 µM.
In the case of `O=S(=O)(Nc1cccc2c1CCCC2)c1ccc(Cl)cc1` it was 2.92 µM; in that of `COc1ccc(-c2cc3ncnc(Cl)c3s2)cc1`, 7.15 µM.
With `COc1ccc(/C=C2/Sc3ccc(C(=O)N4CCc5ccccc5C4)cc3NC2=O)cc1`, the EC50 was 1.65 µM.
On to `Oc1cccc2ccc(/C=C/c3c(F)cccc3Cl)nc12`, for which the EC50 was 0.43 µM.
In the case of `Cc1ccc(-c2cc(C(=O)N3CCN(c4ccccc4O)CC3)c3ccccc3n2)cc1` it was 8.84 µM.
For the compound `c1csc(-c2csc3nc(CN4CCOCC4)nc(NCc4ccc5c(c4)OCO5)c23)c1`, the EC50 was 4.94 µM.
As for `O=c1c2c(nc3c(-c4ccc(Cl)cc4)c[nH]n13)CCCC2`, the figure is 4.55 µM.
`CN(Cc1cnc2nc(N)nc(N)c2n1)c1ccc(C(=O)N[C@@H](CCC(=O)O)C(=O)O)cc1`: the EC50 was 0.61 µM.
As for `O=c1[nH]c(-c2ccccn2)nc2sc(-c3ccccc3)cc12`, the figure is 0.261 µM; as for `Cn1cc(C(=O)c2ccc(Cl)cc2Cl)cc1C(=O)N/N=C(\N)COc1ccc(Cl)cc1Cl`, 1.72 µM.
In the case of `O=C(CSC(=S)N1CCOCC1)c1cc(Br)cc(Br)c1O` it was > 15 µM (inactive); in that of `C=C(C)COc1ccc(-c2n[nH]c(C)c2-c2ccccc2)c(O)c1`, 2.4 µM.
As for `Cc1cc(/C=N/n2cnnc2)c(C)n1-c1ccc(OCc2ccc(Cl)cc2)cc1`, the figure is 6.19 µM.
On to `NCCCn1c(C(=O)c2cc(Cl)c(N)c(Cl)c2)c2ccc([N+](=O)[O-])cc2[n+]1[O-]`, for which the EC50 was 4.25 µM.
Turning to `COc1cc(NS(=O)(=O)c2ccc3ccccc3c2)c2ncccc2c1`, the EC50 was 1.08 µM.
In the case of `O=S(=O)(Nc1ccc(O)c(Sc2nc3ccccc3s2)c1)c1cccc2ccccc12` it was 3.09 µM; in that of `CC(=O)N1CCc2cc(S(=O)(=O)N3CCc4ccccc43)ccc21`, > 15 µM (inactive).
With `N=c1ccn2c(n1)O[C@H]1[C@H](O)[C@@H](CO)O[C@H]12`, the EC50 was 4.89 µM.
Regarding `O=c1c2c(n3nnnc3n1Cc1ccccc1)-c1ccccc1CC21CCCC1`, the EC50 was 1.67 µM.
As for `CC(C)Cn1c(N)c(C(=O)NCc2cccs2)c2nc3ccccc3nc21`, the figure is 5.37 µM.
As for `C/C(=N/NC(=O)c1cc2ccccc2cc1O)C1C(=O)c2ccccc2C1=O`, the figure is 1.57 µM.
Take `O=C(Nc1nc2ccccc2n1CCOc1ccccc1)c1ccco1`: the EC50 is 6.87 µM.
As to `N#Cc1c(NC(=O)CSc2n[nH]c(Cc3ccccc3)n2)oc(-c2ccccc2)c1-c1ccccc1`, the EC50 is 4.93 µM.
Take `Oc1c(CN2CCN(c3ccc(F)cc3)CC2)cc(Cl)c2cccnc12`: the EC50 is 1.01 µM.
In the case of `COc1ccc(-c2oc3ccc(N4CCOCC4)cc3c2C#CC2(O)CCCCC2)cc1` it was 2.11 µM; in that of `Cc1nn(C(=O)c2cccnc2)c(C)c1Sc1ccc(Br)cc1`, 4.36 µM; in that of `Cc1cc(C)c2nc(NNC(=O)c3cc(=O)c4ccccc4o3)sc2c1`, 0.165 µM.
As for `O=C(CNc1ccc2ccccc2c1)N/N=C/c1ccc([N+](=O)[O-])o1`, the figure is 14.3 µM; as for `CCCCCCCn1c(=O)c(C(=O)Nc2cnccn2)c(O)c2ccccc21`, 2.16 µM.
In the case of `Cc1ccccc1-c1nc2c3ccccc3nc(=S)n2[nH]1` it was 4.01 µM; in that of `Cc1onc(-c2ccccc2)c1C(=O)NC(=S)NNC(=O)c1ccc(O)cc1O`, 2.67 µM; in that of `Cc1nnc(SCC2=C(C(=O)O)N3C(=O)C(NC(=O)C(C)n4nc(C(F)(F)F)cc4C)C3SC2)s1` (stereo not given), 0.14 µM.
For `Clc1ccc(-[n+]2c(-c3cccc(Br)c3)[nH]c3nc4ccccc4nc32)cc1`, the EC50 was 1.67 µM.
As for `CCc1ccc(/C=C2\SC(=S)N(CCCC(=O)Nc3ccc(C(=O)O)cc3)C2=O)cc1`, the figure is 7.83 µM.
Regarding `CCc1ccc(/C=C2/SC(=S)N(CC(=O)Nc3nc4ccccc4s3)C2=O)cc1`, the EC50 is 2.52 µM.
Regarding `COc1ccc(NC(=O)c2ccc3c(c2)NC(=O)CS3)cc1S(=O)(=O)Nc1ccc(Br)cc1`, the EC50 was 3.38 µM.
In the case of `COc1cc(/C(C)=C/c2ccccc2)c2c(c1)oc1ccccc12` it was 4.04 µM.

In general, EC50 refers to the concentration that produces a half-maximal response.
